# Assay results published in PMC7567103 (Nature Communications, 2020).
# Assays:
# Format in all cases: cell-based
# [1] = target: T1, GHRHR wild-type (HA-Flag-GHRHR) (Homo sapiens, UniProt Q02643); experiment: GHRH-stimulated cAMP accumulation (LANCE), HEK 293T; details: LANCE Ultra cAMP TR-FRET, 30 min RT, mean ± SEM, n ≥ 3
# T1 construct: GHRHR(23-423) (WT); HA signal peptide (replaces native signal M1-G22) (N); expressed in transfected cells; host or cells: HEK 293T, pcDNA3.1, transient
# From the text: (§1) Fig. 2 Molecular recognition of GHRH by GHRHR and comparison of that with LA-PTH–PTH1R and GLP-1–GLP-1R. a Detailed interaction between GHRH and the TMD pocket of GHRHR with hydrogen bonds shown as dotted lines. b, c Pairwise comparison of GHRH bound to GHRHR with GLP-1 and LA-PTH in complex with their corresponding receptors, showing the relative positions of peptide ligands. Lime green, GHRHR; blue, GHRH; red, PTH1R and LA-PTH; purple, GLP-1R and GLP-1. d–f The effects of mutation in the ligand-binding pocket on cAMP accumulation. cAMP levels were measured in wild-type (WT) receptor and alanine mutants in ECL1, 2, and 3 (d), TM1, 2, and 3 (e), and TM5, 6, and 7 (f). cAMP signals were normalized to the maximum response of WT and concentration–response curves were analyzed using a three-parameter logistic equation. Data shown are means ± S.E.M. of at least three independent experiments (n = 3–5), conducted in triplicate. Source data are provided as a Source data file.
# GHRH-stimulated cAMP accumulation was measured by a LANCE Ultra cAMP kit (PerkinElmer). […] After 1 h RT incubation, TR-FRET signals (excitation: 320 nm, emission: 615 and 665 nm) were measured by an EnVision (PerkinElmer). […]
# 245 to determine pEC50 and Emax values. Emax values for mutants are expressed as a
# 246 percentage of the wild-type (WT). Cell surface expression was assessed by FACS to […]
# [2] = target: T2, GHRHR L119A (Homo sapiens, UniProt Q02643, L119A); experiment: cAMP accumulation, L119A; details: mean ± SEM, n ≥ 3
# T2 construct: GHRHR(23-423)-; HA signal peptide (replaces native signal M1-G22) (N); expressed in transfected cells; host or cells: HEK 293T, pcDNA3.1, transient
# From the text: as §1
# (§2) GHRH-stimulated cAMP accumulation was measured by a LANCE Ultra cAMP kit (PerkinElmer). […] After 1 h RT incubation, TR-FRET signals (excitation: 320 nm, emission: 615 and 665 nm) were measured by an EnVision (PerkinElmer).
# [3] = target: T3, GHRHR V129A (Homo sapiens, UniProt Q02643, V129A); experiment: cAMP accumulation, V129A; details: mean ± SEM, n ≥ 3
# T3 construct: GHRHR(23-423)-; HA signal peptide (replaces native signal M1-G22) (N); expressed in transfected cells; host or cells: HEK 293T, pcDNA3.1, transient
# From the text: as §1, §2
# [4] = target: T4, GHRHR V179A (Homo sapiens, UniProt Q02643, V179A); experiment: cAMP accumulation, V179A; details: mean ± SEM, n ≥ 3
# T4 construct: GHRHR(23-423)-; HA signal peptide (replaces native signal M1-G22) (N); expressed in transfected cells; host or cells: HEK 293T, pcDNA3.1, transient
# From the text: as §1, §2
# [5] = target: T5, GHRHR F187A (Homo sapiens, UniProt Q02643, F187A); experiment: cAMP accumulation, F187A; details: mean ± SEM, n ≥ 3
# T5 construct: GHRHR(23-423)-; HA signal peptide (replaces native signal M1-G22) (N); expressed in transfected cells; host or cells: HEK 293T, pcDNA3.1, transient
# From the text: as §1, §2
# [6] = target: T6, GHRHR T192A (Homo sapiens, UniProt Q02643, T192A); experiment: cAMP accumulation, T192A; details: mean ± SEM, n ≥ 3
# T6 construct: GHRHR(23-423)-; HA signal peptide (replaces native signal M1-G22) (N); expressed in transfected cells; host or cells: HEK 293T, pcDNA3.1, transient
# From the text: as §1, §2
# [7] = target: T7, GHRHR A271F (Homo sapiens, UniProt Q02643, A271F); experiment: cAMP accumulation, A271F; details: mean ± SEM, n ≥ 3
# T7 construct: GHRHR(23-423)-; HA signal peptide (replaces native signal M1-G22) (N); expressed in transfected cells; host or cells: HEK 293T, pcDNA3.1, transient
# From the text: as §1, §2
# [8] = target: T8, GHRHR D276A (Homo sapiens, UniProt Q02643, D276A); experiment: cAMP accumulation, D276A; details: mean ± SEM, n ≥ 3
# T8 construct: GHRHR(23-423)-; HA signal peptide (replaces native signal M1-G22) (N); expressed in transfected cells; host or cells: HEK 293T, pcDNA3.1, transient
# From the text: as §1, §2
# [9] = target: T9, GHRHR D350A (Homo sapiens, UniProt Q02643, D350A); experiment: cAMP accumulation, D350A; details: mean ± SEM, n ≥ 3
# T9 construct: GHRHR(23-423)-; HA signal peptide (replaces native signal M1-G22) (N); expressed in transfected cells; host or cells: HEK 293 T
# From the text: as §1, §2
# T6 sequence (Q02643 23-423 T192A): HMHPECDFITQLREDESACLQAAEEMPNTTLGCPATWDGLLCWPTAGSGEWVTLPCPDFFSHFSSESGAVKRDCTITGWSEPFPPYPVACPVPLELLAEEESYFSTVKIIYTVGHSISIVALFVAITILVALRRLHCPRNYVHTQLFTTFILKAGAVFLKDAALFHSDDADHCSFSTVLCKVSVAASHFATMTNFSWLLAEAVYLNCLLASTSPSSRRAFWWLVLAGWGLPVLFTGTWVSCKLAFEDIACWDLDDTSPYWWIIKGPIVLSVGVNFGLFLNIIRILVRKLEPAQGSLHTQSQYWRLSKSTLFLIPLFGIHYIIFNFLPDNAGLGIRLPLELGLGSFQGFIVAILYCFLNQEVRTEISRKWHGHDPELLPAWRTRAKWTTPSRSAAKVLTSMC
# T5 sequence (Q02643 23-423 F187A): as the sequence (Q02643 23-423 T192A) above, with F165A, A170T counted along it
# T4 sequence (Q02643 23-423 V179A): as the sequence (Q02643 23-423 T192A) above, with V157A, A170T counted along it
# T2 sequence (Q02643 23-423 L119A): as the sequence (Q02643 23-423 T192A) above, with L97A, A170T counted along it
# T1 sequence (Q02643 23-423): as the sequence (Q02643 23-423 T192A) above, with A170T counted along it
# T8 sequence (Q02643 23-423 D276A): as the sequence (Q02643 23-423 T192A) above, with A170T, D254A counted along it
# T9 sequence (Q02643 23-423 D350A): as the sequence (Q02643 23-423 T192A) above, with A170T, D328A counted along it
# T7 sequence (Q02643 23-423 A271F): as the sequence (Q02643 23-423 T192A) above, with A170T, A249F counted along it
# T3 sequence (Q02643 23-423 V129A): as the sequence (Q02643 23-423 T192A) above, with V107A, A170T counted along it
smiles,measurement,setting,value
"CC[C@H](C)[C@H](NC(=O)[C@H](C)NC(=O)[C@H](CC(=O)O)NC(=O)[C@H](C)NC(=O)[C@@H](N)Cc1ccc(O)cc1)C(=O)N[C@@H](Cc1ccccc1)C(=O)N[C@H](C(=O)N[C@@H](CC(N)=O)C(=O)N[C@@H](CO)C(=O)N[C@@H](Cc1ccc(O)cc1)C(=O)N[C@@H](CCCNC(=N)N)C(=O)N[C@@H](CCCCN)C(=O)N[C@H](C(=O)N[C@@H](CC(C)C)C(=O)NCC(=O)N[C@@H](CCC(N)=O)C(=O)N[C@@H](CC(C)C)C(=O)N[C@@H](CO)C(=O)N[C@@H](C)C(=O)N[C@@H](CCCNC(=N)N)C(=O)N[C@@H](CCCCN)C(=O)N[C@@H](CC(C)C)C(=O)N[C@@H](CC(C)C)C(=O)N[C@@H](CCC(N)=O)C(=O)N[C@@H](CC(=O)O)C(=O)N[C@H](C(=O)N[C@@H](CCSC)C(=O)N[C@@H](CO)C(=O)N[C@@H](CCCNC(=N)N)C(=O)N[C@@H](CCC(N)=O)C(=O)N[C@@H](CCC(N)=O)C(=O)NCC(=O)N[C@@H](CCC(=O)O)C(=O)N[C@@H](CO)C(=O)N[C@@H](CC(N)=O)C(=O)N[C@@H](CCC(N)=O)C(=O)N[C@@H](CCC(=O)O)C(=O)N[C@@H](CCCNC(=N)N)C(=O)NCC(=O)N[C@@H](C)C(=O)N[C@@H](CCCNC(=N)N)C(=O)N[C@@H](C)C(=O)N[C@@H](CCCNC(=N)N)C(=O)N[C@@H](CC(C)C)C(N)=O)[C@@H](C)CC)C(C)C)[C@@H](C)O [GHRH, Growth hormone-releasing hormone]",EC50,[1]; 0.5 mM IBMX,0.182 nM
same,Emax,[1],100 % WT
same,EC50,[2],0.724 nM
same,Emax,[2],98.67±1.48 % WT
same,EC50,[3],166 nM
same,Emax,[3],24.33±6.11 % WT
same,EC50,[4],0.288 nM
same,Emax,[4],101.24±3.06 % WT
same,EC50,[5],1.15 nM
same,Emax,[5],101.68±1.52 % WT
same,EC50,[6],0.229 nM
same,Emax,[6],103.11±1.18 % WT
same,EC50,[7],0.186 nM
same,Emax,[7],103.70±0.64 % WT
same,EC50,[8],0.331 nM
same,Emax,[8],102.04±0.51 % WT
same,EC50,[9],148 nM
same,Emax,[9],47.38±8.48 % WT
